The target in one test is HDAC3 (Homo sapiens (Human), UniProt O15379). In words: HDAC enzyme assay, HDAC3. The conditions noted are these: for HDAC3 fold over HDAC6 IC50 (selectivity for HDAC6): ratio HDAC3/HDAC6; for IC50: read-out: HDAC3 IC50.
The next test has as its target HDAC2 (Homo sapiens (Human), UniProt Q92769). In words: HDAC enzyme assay, HDAC2. The following applies: for HDAC2 fold over HDAC6 IC50 (selectivity for HDAC6): ratio HDAC2/HDAC6; for IC50: read-out: HDAC2 IC50.
The target of the next test is HDAC6 (Homo sapiens (Human), UniProt Q9UBN7). The following applies: read-out: HDAC6 IC50.
Sequence of HDAC6 (Q9UBN7 whole entry): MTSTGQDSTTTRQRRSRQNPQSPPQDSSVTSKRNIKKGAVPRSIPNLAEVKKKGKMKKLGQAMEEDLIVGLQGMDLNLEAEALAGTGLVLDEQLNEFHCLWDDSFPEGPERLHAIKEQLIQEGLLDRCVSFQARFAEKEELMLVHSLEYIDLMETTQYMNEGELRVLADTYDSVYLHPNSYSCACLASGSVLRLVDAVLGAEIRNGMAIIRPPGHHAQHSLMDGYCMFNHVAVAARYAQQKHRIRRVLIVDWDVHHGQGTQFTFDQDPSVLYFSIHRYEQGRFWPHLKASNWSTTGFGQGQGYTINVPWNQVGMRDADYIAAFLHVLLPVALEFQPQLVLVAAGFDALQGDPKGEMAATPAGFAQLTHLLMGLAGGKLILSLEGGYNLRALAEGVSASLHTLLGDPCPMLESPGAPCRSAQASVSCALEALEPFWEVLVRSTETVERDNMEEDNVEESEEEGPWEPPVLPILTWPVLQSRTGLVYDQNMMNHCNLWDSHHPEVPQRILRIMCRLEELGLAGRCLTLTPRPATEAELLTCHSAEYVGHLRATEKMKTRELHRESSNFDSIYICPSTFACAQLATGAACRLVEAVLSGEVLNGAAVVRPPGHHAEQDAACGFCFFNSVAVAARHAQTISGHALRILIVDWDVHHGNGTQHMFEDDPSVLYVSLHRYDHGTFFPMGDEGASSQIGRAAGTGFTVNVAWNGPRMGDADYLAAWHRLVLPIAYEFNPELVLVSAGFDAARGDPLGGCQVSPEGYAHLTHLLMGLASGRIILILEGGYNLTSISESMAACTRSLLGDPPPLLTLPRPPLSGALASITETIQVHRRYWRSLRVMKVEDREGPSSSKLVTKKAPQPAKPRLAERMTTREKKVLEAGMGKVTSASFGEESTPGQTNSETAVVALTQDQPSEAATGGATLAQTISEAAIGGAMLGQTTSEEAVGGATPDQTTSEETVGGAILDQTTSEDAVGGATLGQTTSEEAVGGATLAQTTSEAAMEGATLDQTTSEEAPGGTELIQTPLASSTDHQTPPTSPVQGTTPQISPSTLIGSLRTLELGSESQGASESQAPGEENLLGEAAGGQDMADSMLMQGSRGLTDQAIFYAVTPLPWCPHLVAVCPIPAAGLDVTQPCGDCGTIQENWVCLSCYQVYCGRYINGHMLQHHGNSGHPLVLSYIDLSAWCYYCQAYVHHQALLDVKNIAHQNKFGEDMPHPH
A further test deals with HDAC1 (Homo sapiens (Human), UniProt Q13547). Description: HDAC enzyme assay, HDAC1. The conditions noted are these: for HDAC1 fold over HDAC6 IC50 (selectivity for HDAC6): ratio HDAC1/HDAC6; for IC50: read-out: HDAC1 IC50.
Sequence of HDAC1 (Q13547 whole entry): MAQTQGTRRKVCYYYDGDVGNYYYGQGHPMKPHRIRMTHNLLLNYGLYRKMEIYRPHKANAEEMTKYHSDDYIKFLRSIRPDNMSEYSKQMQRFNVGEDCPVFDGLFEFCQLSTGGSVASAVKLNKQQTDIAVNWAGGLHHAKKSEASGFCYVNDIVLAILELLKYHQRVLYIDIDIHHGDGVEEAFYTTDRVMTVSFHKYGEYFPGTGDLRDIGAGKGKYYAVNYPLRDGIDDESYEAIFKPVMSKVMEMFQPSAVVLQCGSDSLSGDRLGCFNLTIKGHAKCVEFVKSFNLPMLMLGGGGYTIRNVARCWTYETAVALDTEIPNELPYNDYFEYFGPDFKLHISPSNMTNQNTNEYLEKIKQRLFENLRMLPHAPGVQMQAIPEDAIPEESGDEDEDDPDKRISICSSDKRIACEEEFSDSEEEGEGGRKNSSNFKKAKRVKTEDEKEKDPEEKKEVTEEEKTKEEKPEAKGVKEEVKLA

Sequence of HDAC3 (O15379 whole entry): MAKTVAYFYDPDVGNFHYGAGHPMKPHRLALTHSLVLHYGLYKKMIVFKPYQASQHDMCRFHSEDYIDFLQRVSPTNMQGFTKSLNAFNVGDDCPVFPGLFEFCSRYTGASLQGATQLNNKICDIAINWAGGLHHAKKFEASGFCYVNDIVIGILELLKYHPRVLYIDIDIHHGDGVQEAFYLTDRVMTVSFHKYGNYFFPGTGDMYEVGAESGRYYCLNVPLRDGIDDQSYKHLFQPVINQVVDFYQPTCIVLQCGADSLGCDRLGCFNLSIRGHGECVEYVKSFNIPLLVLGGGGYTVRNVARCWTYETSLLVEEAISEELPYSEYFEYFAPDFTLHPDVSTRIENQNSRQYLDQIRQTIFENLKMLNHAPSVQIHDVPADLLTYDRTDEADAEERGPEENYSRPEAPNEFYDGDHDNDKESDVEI
Sequence of HDAC3 (Q9Y618 395-489 partner): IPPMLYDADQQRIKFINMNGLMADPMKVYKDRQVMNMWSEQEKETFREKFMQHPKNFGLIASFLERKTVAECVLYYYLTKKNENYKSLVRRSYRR
Sequence of HDAC2 (Q92769 whole entry): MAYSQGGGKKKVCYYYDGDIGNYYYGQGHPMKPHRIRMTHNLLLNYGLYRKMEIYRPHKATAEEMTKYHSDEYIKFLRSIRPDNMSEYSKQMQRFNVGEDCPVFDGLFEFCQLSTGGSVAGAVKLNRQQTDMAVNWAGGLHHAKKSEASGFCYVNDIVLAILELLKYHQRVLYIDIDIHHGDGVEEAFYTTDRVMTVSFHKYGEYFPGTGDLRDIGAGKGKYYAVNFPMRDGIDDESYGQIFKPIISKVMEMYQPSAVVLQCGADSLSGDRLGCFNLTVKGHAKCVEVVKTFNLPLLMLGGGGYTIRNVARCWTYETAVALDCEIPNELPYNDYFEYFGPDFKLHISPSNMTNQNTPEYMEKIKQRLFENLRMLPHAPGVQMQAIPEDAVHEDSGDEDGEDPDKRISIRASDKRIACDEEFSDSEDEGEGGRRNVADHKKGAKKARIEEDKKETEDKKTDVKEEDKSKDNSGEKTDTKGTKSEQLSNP

Regarding `O=C(NO)c1cnc(Nc2ccccc2)nc1` [Compound 1, N-hydroxy-2-(phenylamino)pyrimidine-5-carboxamide], at HDAC3, the “HDAC3 fold over HDAC6 IC50 (selectivity for HDAC6)” value was 27x. Moreover, the “HDAC2 fold over HDAC6 IC50 (selectivity for HDAC6)” value at HDAC2 came out at 30x. Further, on HDAC6, the IC50 – broadly, the concentration that gives 50% inhibition – was found to be 7 nM. The “HDAC1 fold over HDAC6 IC50 (selectivity for HDAC6)” value at HDAC1 is reported as 20x.

As to `O=C(NO)c1cnc(Nc2ccc(Cl)c(Cl)c2)nc1` [Compound 2], the IC50 at HDAC3 came out at 299 nM; on HDAC6, 5 nM; on HDAC1, 264 nM.

Consider `O=C(NO)c1cnc(Nc2ccc(F)cc2)nc1` [Compound 3], for which, at HDAC3, the “HDAC3 fold over HDAC6 IC50 (selectivity for HDAC6)” value is on record as “(44.9x)” and the IC50 amounted to 354 nM. At HDAC2, the “HDAC2 fold over HDAC6 IC50 (selectivity for HDAC6)” value is recorded as “(44.1x)” and the IC50 is 347 nM. Also, the IC50 on HDAC6 is 8 nM. Further, at HDAC1, the “HDAC1 fold over HDAC6 IC50 (selectivity for HDAC6)” value is “(26.7x)” and the IC50 amounted to 210 nM.

For the compound `Cc1ccc(Nc2ncc(C(=O)NO)cn2)cc1` [Compound 4], on HDAC3, the “HDAC3 fold over HDAC6 IC50 (selectivity for HDAC6)” value is on record as “(32.9x)”. For the same compound, the IC50 at HDAC3 came to 291 nM; at HDAC2, 290 nM; on HDAC6 it was 9 nM; on HDAC1, 195 nM. Also, the “HDAC2 fold over HDAC6 IC50 (selectivity for HDAC6)” value at HDAC2 is reported as “(32.8x)”. The “HDAC1 fold over HDAC6 IC50 (selectivity for HDAC6)” value at HDAC1 is recorded as “(22x)”.

As to `COc1ccc(Nc2ncc(C(=O)NO)cn2)cc1` [Compound 5], the “HDAC3 fold over HDAC6 IC50 (selectivity for HDAC6)” value at HDAC3 is on record as “(27.8x)”. The IC50 worked out at 421 nM on HDAC3, 395 nM at HDAC2, 15 nM on HDAC6 and 247 nM at HDAC1. The “HDAC2 fold over HDAC6 IC50 (selectivity for HDAC6)” value on HDAC2 is recorded as “(26x)”. At HDAC1, the “HDAC1 fold over HDAC6 IC50 (selectivity for HDAC6)” value is “(16.3x)”.

For `O=C(NO)c1cnc(Nc2ccc(Cl)cc2)nc1` [Compound 6], on HDAC3, the “HDAC3 fold over HDAC6 IC50 (selectivity for HDAC6)” value was “(13.3x)” and the IC50 came out at 266 nM. Besides, on HDAC2, the “HDAC2 fold over HDAC6 IC50 (selectivity for HDAC6)” value is given as “(11.6x)” and the IC50 came out at 231 nM. The IC50 at HDAC6 is 20 nM. At HDAC1, the “HDAC1 fold over HDAC6 IC50 (selectivity for HDAC6)” value is “(10.1x)” and the IC50 is 202 nM.

Consider `O=C(NO)c1cnc(Nc2ccccc2Cl)nc1` [Compound 7], for which, at HDAC3, the “HDAC3 fold over HDAC6 IC50 (selectivity for HDAC6)” value is “(14.4x)” and the IC50 is 606 nM. On HDAC2, the “HDAC2 fold over HDAC6 IC50 (selectivity for HDAC6)” value was “(14.9x)” and the IC50 came to 629 nM. Further, on HDAC6, the 50% inhibitory concentration (IC50) came to 42 nM. For the same compound, on HDAC1, the “HDAC1 fold over HDAC6 IC50 (selectivity for HDAC6)” value is reported as “(9.9x)” and the IC50 was found to be 415 nM.

In the case of `CN(c1ccc(Cl)c(Cl)c1)c1ncc(C(=O)NO)cn1` [Compound 8], the IC50 on HDAC3 turned out to be 219 nM; on HDAC6 it was 38 nM.

Take `CC(Nc1ncc(C(=O)NO)cn1)c1ccccc1` (stereo not drawn) [Compound 32]: the IC50 at HDAC6 is 2 nM.

Regarding `O=C(NO)c1cnc(NCCc2ccccc2)nc1` [Compound 41], the concentration for half-maximal inhibition (IC50) on HDAC3 was determined as 326 nM; on HDAC6, 4 nM; on HDAC1 it was 214 nM.

With `O=C(NO)c1cnc(NCCc2ccc(Cl)cc2)nc1` [Compound 44], the results for the IC50 on HDAC3, on HDAC6 and at HDAC1 were 307 nM, 11 nM and 173 nM, respectively.

On to `O=C(NO)c1cnc(NCc2ccc3c(c2)OCO3)nc1` [Compound 46], for which the IC50 was determined as 58 nM on HDAC3, 53 nM on HDAC2 and 40 nM on HDAC1.

With `COc1cc(F)ccc1CNc1ncc(C(=O)NO)cn1` [Compound 49], the IC50 was 303 nM on HDAC3, 338 nM on HDAC2 and 219 nM on HDAC1.

As for `Cc1cc(Cl)ccc1CNc1ncc(C(=O)NO)cn1` [Compound 52], the IC50 at HDAC6 worked out at 3 nM; at HDAC1 it was 185 nM.

With `C[C@H](Nc1ncc(C(=O)NO)cn1)c1ccccc1` [Compound 61], at HDAC6, the 50% inhibitory concentration (IC50) turned out to be 37 nM.

In the case of `C[C@@H](Nc1ncc(C(=O)NO)cn1)c1ccccc1` [Compound 62], at HDAC6, the IC50 is 2 nM.

In the case of `C[C@H](Nc1ncc(C(=O)NO)cn1)c1ccccc1` [Compound 65], the IC50 at HDAC6 came to 19 nM.

On to `C[C@@H](Nc1ncc(C(=O)NO)cn1)c1ccccc1` [Compound 66], for which the IC50 at HDAC6 turned out to be 1 nM.

On to `CC(Nc1ncc(C(=O)NO)cn1)c1ccccc1` (stereo not drawn) [Compound 67], for which the IC50 at HDAC6 turned out to be 2 nM.

As for `O=C(NO)c1cnc(NCc2ccncc2)nc1` [Compound 69], the IC50 worked out at 299 nM on HDAC3, 5 nM on HDAC6 and 204 nM on HDAC1.

In the case of `CC(C)(Nc1ncc(C(=O)NO)cn1)c1ccccc1F` [Compound 71], the IC50 on HDAC3 is 1260 nM; on HDAC2 it was 912 nM; at HDAC1, 500 nM.

On to `O=C(NO)c1cnc(NC2(c3ccccc3F)CC2)nc1` [Compound 82], for which the IC50 on HDAC3 worked out at 22 nM; on HDAC2, 18 nM; on HDAC1 it was 16 nM.

On to `O=C(NO)c1cnc(NC2(c3cccc(F)c3)CC2)nc1` [Compound 87], for which the IC50 on HDAC3 worked out at 233 nM; on HDAC2, 116 nM; on HDAC1, 85 nM.

As for `O=C(NO)c1cnc(NC2(c3cccc(Cl)c3)CC2)nc1` [Compound 94], the IC50 was found to be 50 nM at HDAC3 and 22 nM on HDAC1.

In the case of `O=C(NO)c1cnc(NC2(c3cccs3)CC2)nc1` [Compound 98], the figures for the IC50 on HDAC3, at HDAC6 and on HDAC1 were 4250 nM, 4 nM and 147 nM, respectively.

`COc1cccc(C2(Nc3ncc(C(=O)NO)cn3)CC2)c1` [Compound 120]: the figures for the IC50 at HDAC3, at HDAC2 and at HDAC1 were 128 nM, 53 nM and 38 nM, respectively.

Regarding `O=C(NO)c1cnc(NC2(c3cccc(C(F)(F)F)c3)CC2)nc1` [Compound 121], the IC50 at HDAC3 is 99 nM; on HDAC2, 32 nM; at HDAC1 it was 27 nM.

`Cc1ccccc1C1(Nc2ncc(C(=O)NO)cn2)CC1` [Compound 127]: the values for the IC50 on HDAC3, on HDAC2 and on HDAC1 were 119 nM, 57 nM and 50 nM, respectively.

Regarding `O=C(NO)c1cnc(NC2(c3ccc(F)c(Cl)c3)CC2)nc1` [Compound 131], the IC50 amounted to 62 nM at HDAC3, 19 nM on HDAC2 and 17 nM on HDAC1.

Regarding `Cc1cccc(C2(Nc3ncc(C(=O)NO)cn3)CC2)c1` [Compound 134], the concentration for half-maximal inhibition (IC50) at HDAC3 was determined as 99 nM; at HDAC2 it was 40 nM; on HDAC1 it was 47 nM.

On to `O=C(NO)c1cnc(NC2(c3ccc(Cl)cc3)CC2)nc1` [Compound 136], for which the IC50 was 107 nM on HDAC3, 40 nM on HDAC2 and 45 nM at HDAC1.

Turning to `O=C(NO)c1cnc(NC2(c3ccc(Cl)c(Cl)c3)CC2)nc1` [Compound 141], the IC50 stood at 54 nM at HDAC3, 17 nM at HDAC2 and 13 nM at HDAC1.

On to `O=C(NO)c1cnc(NC2(c3cc(Cl)cc(Cl)c3)CC2)nc1` [Compound 146], for which the values for the IC50 on HDAC3, on HDAC2 and on HDAC1 were 57 nM, 22 nM and 16 nM, respectively.

Consider `O=C(NO)c1cnc(NC2(c3cccc(Cl)c3)CCCC2)nc1` [Compound 153], for which the IC50 on HDAC3 was 1260 nM; on HDAC2, 491 nM; at HDAC1 it was 528 nM.

The record behind these values is patent US8614223B2, “Pyrimidine hydroxy amide compounds as protein deacetylase inhibitors and methods of use thereof” (Acetylon Pharmaceuticals, Inc., priority 2010, dated 2013).
